Data: article PMC3481155, “AhR activation underlies the CYP1A autoinduction by A-998679 in rats” (Frontiers in Genetics, 2012)

Assays:
[1] = system: Mrp2; assay: Mrp2 expression in rat small intestine; format: in vivo; details: treated rats; data not shown
Method: All animal experiments were conducted in accordance with the Guiding Principles in the Use of Animals in Toxicology (http://www.toxicology.org/ai/air/air6.asp) and were approved by Abbott's Institutional Animal Care and Use Committee (IACUC). Male Sprague-Dawley rats [Crl:CD®(SD)IGS BR], weighing ~250 g at study initiation were obtained from Charles River Laboratories, Inc. (Wilmington, MA). Rats were housed singly in ventilated, stainless steel, wire-bottom hanging cages and fed non-certified Rodent Chow (Harlan Labs, Madison, WI), and water ad libitum and acclimated for at least 5 days after arrival. […] Serum clinical chemistry parameters were quantified using an Aeroset Clinical Chemistry Analyzer (Abbott Laboratories, Abbott Park, IL) and included alanine amino transferase (ALT), aspartate amino transferase (AST), gamma glutamyltransferase (GGT), and alkaline phosphatase (ALP) activities.
Frozen liver or jejunum were immediately added to 4 ml of TRIzol reagent (Invitrogen Life Technologies) and homogenized using a Polytron 300D homogenizer (Brinkman Instruments, Westbury, NY). […] Nucleic acid concentration was determined by OD 260 nm (Smart-Spec, Bio-Rad Laboratories, Hercules, CA), and RNA integrity was evaluated using an Agilent 2100 bioanalyzer (Agilent Technologies, Foster City, CA). […]

[2] = molecular target: T1, AhR (Homo sapiens, UniProt P35869); assay: AhR nuclear translocation assay in HepG2 cells; format: cell-based; details: for AhR nuclear staining (% positive cells) 2 h: vehicle 15.6; for AhR nuclear staining (% positive cells) 24 h: vehicle 3.4
T1 construct: endogenous in cells; host or cells: HepG2
T1 sequence (P35869 11-848): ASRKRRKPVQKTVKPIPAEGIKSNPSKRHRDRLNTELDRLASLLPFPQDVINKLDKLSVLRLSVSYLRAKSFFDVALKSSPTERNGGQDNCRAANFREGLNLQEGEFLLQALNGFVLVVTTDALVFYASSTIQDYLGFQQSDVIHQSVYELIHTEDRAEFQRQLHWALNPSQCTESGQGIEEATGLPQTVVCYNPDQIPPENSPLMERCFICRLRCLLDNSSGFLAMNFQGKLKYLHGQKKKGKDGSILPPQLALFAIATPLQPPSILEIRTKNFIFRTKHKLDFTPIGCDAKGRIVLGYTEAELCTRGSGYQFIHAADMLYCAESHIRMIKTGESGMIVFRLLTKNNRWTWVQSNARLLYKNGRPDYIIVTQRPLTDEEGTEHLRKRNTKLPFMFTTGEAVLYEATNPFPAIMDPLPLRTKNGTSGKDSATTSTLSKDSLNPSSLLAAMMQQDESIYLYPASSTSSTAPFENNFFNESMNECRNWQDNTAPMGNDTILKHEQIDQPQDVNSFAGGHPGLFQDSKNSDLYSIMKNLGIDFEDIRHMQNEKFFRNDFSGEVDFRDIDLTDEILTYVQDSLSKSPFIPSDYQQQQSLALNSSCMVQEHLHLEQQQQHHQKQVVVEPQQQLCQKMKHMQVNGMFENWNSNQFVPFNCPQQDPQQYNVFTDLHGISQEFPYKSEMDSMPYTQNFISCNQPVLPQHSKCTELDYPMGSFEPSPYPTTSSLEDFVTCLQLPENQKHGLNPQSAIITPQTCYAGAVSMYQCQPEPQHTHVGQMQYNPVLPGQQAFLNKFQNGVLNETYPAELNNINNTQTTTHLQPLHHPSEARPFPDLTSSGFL
Method: HepG2 cells were plated in Lab-Tek II Chamber slides (Nalgene, Rochester, NY) at a seeding density of 50,000 cells/well. The cells were allowed to attach overnight and were treated for 2 h or 24 h with 10 or 40 μM A-998679, 2 μM 3-methylchloranthrene (3-MC) as a positive control, or 0.1% (v/v) DMSO vehicle. The cells were fixed in fresh 3% paraformaldehyde solution in PBS followed by a PBS wash, and were then permeabilized for 5 min using 0.2% Triton X-100 in PBS followed by another PBS wash. The cells were then incubated with blocking buffer consisting of 1% BSA/PBS solutions and immediately incubated with a 1:50 dilution of rabbit polyclonal antibody to AhR (Abcam, Cambridge, MA catalog# 63636) for 1 h at 37°C. Cells were then washed with PBS, re-blocked for 10 min, and stained with an Alexa 546 donkey anti-rabbit secondary antibody (diluted 1:200; Invitrogen Life Technologies) for 45 min at 37°C. The cells were then washed with PBS, stained with 0.5 μM Hoescht solution for 15 min, and again washed with PBS. The chamber slides were sealed and examined under the microscope. Images were acquired with a SPOT RT SE digital camera (Diagnostic Instruments, Sterling Heights, MI) mounted on a Leica (Wetzlar, Germany) DMIRE inverted florescence microscope using a 20× objective. Image acquisition was done using Metamorph® software (Molecular Devices, Sunnyvale, CA) and percent translocation of the AhR probe was quantitated using MetaXpress (Molecular Devices). Twenty microscope fields were evaluated per well (~3000–6000 cells/well).

AhR nuclear staining (% positive cells) 2 h ([2]; 10 μM): 18.8 % positive cells | AhR nuclear staining (% positive cells) 24 h ([2]; 10 μM): 4.5 % positive cells | AhR nuclear staining (% positive cells) 2 h ([2]; 40 μM): 29.6 % positive cells | AhR nuclear staining (% positive cells) 24 h ([2]; 40 μM): 6.3 % positive cells
Structure (SMILES): N#Cc1cccc(-c2noc(-c3cccnc3)n2)c1 [A-998679, 3-(5-pyridin-3-yl-1,2,4-oxadiazol-3-yl) benzonitrile]
expression of Mrp2 in small intestine [1]: increased expression
